Laboratory results taken from the NIST ThermoML archive (doi:10.1021/je900199j).
“And” between values parts separate entries of the source, which are not always exact repeats. Equal values may be shown once.

Assay: mn = molality of the nth substance listed, in mol/kg
Details: 101 kPa, Liquid; for speed of sound: Frequency=4 MHz

[Cl-].[K+] [potassium chloride] + O
m1 = 2.13
Details | mass density [kg/m3] | speed of sound [m/s]
298.15 K | 1087.7 | 1592.8
303.15 K | 1085.7 | 1600.4
308.15 K | 1083.6 | 1608
313.15 K | 1081.3 | 1614
318.15 K | 1078.8 | 1617.2
323.15 K | 1076.1 | 1622

O=[N+]([O-])[O-].[K+] [potassium nitrate] + O
m1 = 2.19
Details | mass density [kg/m3] | speed of sound
298.15 K | 1115 | 1558.8 m/s
303.15 K | 1112.5 | 1566.8 m/s
308.15 K | 1109.8 | 1572.8 m/s and 1572.6 m/s
313.15 K | 1107 | 1577.6 m/s
318.15 K | 1104 | 1582 m/s
323.15 K | 1100.9 | 1586.4 m/s
